# According to article PMC7822874, “Chemoprotective antimalarials identified through quantitative high-throughput screening of Plasmodium blood and liver stage parasites” (Scientific Reports, 2021):
# Read-outs that look alike come from different tables or passages of the source.
# Key:
# [1] = tested on: P. berghei-ANKA-GFP-LucCON liver stage parasites in HepG2-A16-CD81EGFP cells; experiment: P. berghei liver stage Pb-Luc assay, Method 1 (UCSD, 1536-well); type: cell-based, Plasmodium berghei; conditions: for activity at 1 µM / activity at 3 µM: 48 h, average of 2 wells on a 1536 well plate; for activity at 1 µM: 1 uM (compounds provided at 10 mM); for activity at 3 µM: 3 uM (compounds provided at 10 mM); for Max Resp (signal direction of the dose response) / AC50 / Log AC50 (M): Method 1; for Max Resp (signal direction of the dose response): Decrease = decreasing P. berghei viability with dose, Increase = increasing signal, Inactive = no dose response
# [2] = tested on: Plasmodium falciparum Dd2 asexual blood stage parasites; experiment: microbe, parasite or virus in culture; parameters: species or system Plasmodium falciparum Dd2 in human erythrocytes; single determination (one 11-point concentration-response curve); conditions: Plasmodium falciparum, DD2, Erythrocyte, 72 h; read-out: AC50
# in vitro = conditions: human, HepG2-A16-CD81EGFP cells, uninfected
# [3] = Plasmodium berghei, column 11, read-out: Pb-Luc (P. berghei liver stage), % of control, lower concentration, first repeat
# [4] = Plasmodium berghei, column 12, read-out: Pb-Luc (P. berghei liver stage), % of control, lower concentration, second repeat
# [5] = Plasmodium berghei, column 8, read-out: Pb-Luc (P. berghei liver stage), % of control, higher concentration, first repeat
# [6] = Plasmodium berghei, column 9, read-out: Pb-Luc (P. berghei liver stage), % of control, higher concentration, second repeat
# [7] = Hill fit, 50% of maximum activity response, read-out: AC50
# [8] = log10 of molar AC50 from Hill fit
# [9] = Plasmodium berghei, Hill fit, 50% of maximum activity response, read-out: AC50
# [10] = Plasmodium berghei, log10 of molar AC50 from Hill fit, read-out: Log AC50 (converted)
SMILES,"activity at 1 µM [1, 3] [%]","activity at 1 µM [1, 4] [%]","activity at 3 µM [1, 5] [%]","activity at 3 µM [1, 6] [%]",AC50 [2] [nM],"viability at 48 h, 1 µM (in vitro) [%]","viability at 48 h, 3 µM (in vitro) [%]",Max Resp (signal direction of the dose response) [1],"AC50 [1, 7] [nM]","Log AC50 (M) [1, 8] [M]","AC50 [1, 9] [nM]","AC50 [1, 10] [nM]",viability at 48 h (in vitro) [%],viability at 66 h (in vitro) [%]
CC(C)(C)CC(C)(C)c1ccc(O)c(CN2CCN(CCC#N)CC2)c1 [MLS000026875-01],129,117,119,112,841,112,97,–,–,–,–,–,–,–
Cc1cc(NC2C3CC4CC(C3)CC2C4)n2nnnc2n1 (stereo not drawn) [MLS000033680-01],124,128,108,131,–,99,108,–,–,–,–,–,–,–
CCNc1nc(OC)nc(Oc2ccc(=O)n(-c3ccccc3)n2)n1 [MLS000034902-01],118,109,117,126,5960,112,101,–,–,–,–,–,–,–
Cc1[nH]c2c(C)cccc2c(=O)c1Br [MLS000036254-01],–,–,–,–,5310,107,–,Decrease,1580,-5.800,1120,1120,107,–
c1cncc(-c2nnc(-c3cccnc3)nn2)c1 [MLS000075752-01],110,109,109,117,–,98,100,–,–,–,–,–,–,–
C=C(C)COc1ccc(-c2n[nH]cc2-c2ccc(OC)c(OC)c2)c(O)c1 [MLS000084580-01],–,–,–,–,6680,–,–,Decrease,–,–,501,501,–,36
COc1ccc(NC2=NC3(CCCCC3)N=C(N)N2)cc1 [MLS000090248-01],133,110,100,80,–,113,97,–,–,–,–,–,–,–
CCOC(=O)CCCCC(=O)c1[nH]c(=O)[nH]c1Cn1ccnc1 [MLS000092014-01],140,105,84,105,2660,98,107,–,–,–,–,–,–,–
Oc1cc(Cc2ccccc2)cnc1CN1CCCCC1 [MLS000104838-01],128,110,97,103,944,98,105,–,–,–,–,–,–,–
Cc1ccc(Oc2ccc(NC(=O)c3ccco3)cc2)cc1 [MLS000111237-01],–,–,–,–,10600,–,–,Decrease,158,-6.800,100,100,–,95.1
O=C(CN1CCN(C(=O)c2ccco2)CC1)Nc1cc(Cl)ccc1Cl [MLS000122513-01],–,–,–,–,5960,–,–,Inactive,–,–,–,–,–,97.6
COc1ccccc1NC(=O)CN1CCN(C(=O)c2ccco2)CC1 [MLS000122729-01],130,101,50,80,–,101,101,–,–,–,–,–,–,–
COc1cccc(CNCC(O)(c2ccc(Cl)cc2)c2ccc(Cl)cc2)c1 [MLS000325699-01],124,99,99,98,–,106,101,–,–,–,–,–,–,–
COc1ccc(Cc2nnc(NC(=O)c3ccc(OC)cc3OC)s2)cc1 [MLS001211969-01],125,130,128,128,–,100,104,–,–,–,–,–,–,–
